In ChEMBL document CHEMBL1130752, “Quaternary substituted PDE IV inhibitors II: the synthesis and in vitro evaluation of a novel series of gamma-lactams” (Bioorg Med Chem Lett, 1998) one finds Ki and IC50 data, which are given here for 23 compounds.

For the first test, the target named is T1, Phosphodiesterase 4 (Homo sapiens, UniProt P27815+Q08499+Q07343+Q08493). The test can be described thus: Affinity for phosphodiesterase (PDE IV) in guinea pig brain membrane using [3H]rolipram displacement. It counts as cell membranes, Cavia porcellus. Particulars: target entry is the homologue from another species.
The compound `COc1ccc(C2(Cc3ccncc3)CCNC2=O)cc1OC1CCCC1` (stereo unspecified) returned a Ki of 210 nM. In other words, the sub-micromolar range.
On the same count and under the same terms, the same measure for `COc1ccc(C2(Cc3ccccc3)CCN(C(=O)OC(C)(C)C)C2=O)cc1OC1CCCC1` (stereo unspecified): 2996 nM.
Still for that read-out and setting: the same measure for `COc1ccc(C2(Cc3ccccc3)CCNC2=O)cc1OC1CCCC1` (stereo unspecified): 787 nM; for `COc1ccc(C2(Cc3ccncc3)CCN(Cc3cccc4ccccc34)C2=O)cc1OC1CCCC1` (stereo unspecified): 822 nM.
The same measure, in the same setting: the figure for `CCOC(=O)N1CCC(Cc2ccncc2)(c2ccc(OC)c(OC3CCCC3)c2)C1=O` (stereo unspecified) is 139 nM; for `COc1ccc(C2(Cc3ccncc3)CCN(Cc3ccncc3)C2=O)cc1OC1CCCC1` (stereo unspecified) it is 443 nM; for `COc1ccc(C2(Cc3ccncc3)CCN(CCC(C)C)C2=O)cc1OC1CCCC1` (stereo unspecified) it is 80 nM.
As for `COc1ccc(C2(Cc3cc[n+]([O-])cc3)CCNC2=O)cc1OC1CCCC1` (stereo unspecified), the Ki is on record as 2247 nM.
Same read-out and setting: the same measure for `COc1ccc(C2(Cc3ccncc3)CCN(C(=O)OC(C)(C)C)C2)cc1OC1CCCC1` (stereo unspecified): 470 nM; for `COc1ccc(C2(Cc3ccncc3)CCN(C(=O)OC(C)(C)C)C2=O)cc1OC1CCCC1` (stereo unspecified): 7.5 nM; for `COc1ccc(C2CCN(C(=O)OC(C)(C)C)C2=O)cc1OC1CCCC1` (stereo unspecified): 337 nM.
The same measure, in the same setting: the figure for `COc1ccc(C2(Cc3ccncc3)CCN(S(=O)(=O)c3ccc(C)cc3)C2=O)cc1OC1CCCC1` (stereo unspecified) is 217 nM.
The compound `CCCCN1CCC(Cc2ccncc2)(c2ccc(OC)c(OC3CCCC3)c2)C1=O` (stereo unspecified) returned a Ki of 137 nM.
The compound `COc1ccc(C2(Cc3ccncc3)CCN(Cc3ccc4ccccc4c3)C2=O)cc1OC1CCCC1` (stereo unspecified) registered a Ki of 4.3 nM.
`COc1ccc(C2(Cc3ccncc3)CCN(Cc3ccccc3)C2=O)cc1OC1CCCC1` (stereo unspecified) displayed a Ki of 51 nM. This Ki is about 12-fold higher than that of the compound before.
Still for that read-out and setting: the figure for `COc1ccc(C2(Cc3ccncc3)CCN(CC3CCCCC3)C2=O)cc1OC1CCCC1` (stereo unspecified) is 43 nM; for `COc1ccc(C2(Cc3cc[n+]([O-])cc3)CCN(C(=O)OC(C)(C)C)C2=O)cc1OC1CCCC1` (stereo unspecified) it is 217 nM.
In turn, `COc1ccc(C2(Cc3ccncc3)CCN(C(=O)N(C)C)C2=O)cc1OC1CCCC1` (stereo unspecified) registered a Ki of 274 nM.
Same read-out and setting: the figure for `COc1ccc(C2CCNC2=O)cc1OC1CCCC1` (stereo unspecified) is over 3745 nM; for `COc1ccc(C2(CC#N)CCN(C(=O)OC(C)(C)C)C2=O)cc1OC1CCCC1` (stereo unspecified) it is 476 nM.
Same read-out and setting: the figure for `COc1ccc(C2(Cc3ccncc3)CCN(C(C)=O)C2=O)cc1OC1CCCC1` (stereo unspecified) is 367 nM.
On the same count and under the same terms, the same measure for `COc1ccc(C2(Cc3ccncc3)CCN(C(=O)OC(C)C)C2=O)cc1OC1CCCC1` (stereo unspecified): 113 nM; for `COC(=O)N1CCC(Cc2ccncc2)(c2ccc(OC)c(OC3CCCC3)c2)C1=O` (stereo unspecified): 822 nM.

Another test addresses T1, Phosphodiesterase 4. The test can be described thus: In vitro inhibition of phosphodiesterase (PDE IV) from guinea pig macrophages. It counts as protein assay, Cavia porcellus. The conditions noted are these: target entry is the homologue from another species.
`COc1ccc(C2(Cc3ccncc3)CCNC2=O)cc1OC1CCCC1` (stereo unspecified) returned an IC50 of 800 nM. This counts as sub-micromolar.
On the same count and under the same terms, the figure for `COc1ccc(C2(Cc3ccccc3)CCN(C(=O)OC(C)(C)C)C2=O)cc1OC1CCCC1` (stereo unspecified) is 220 nM.
Take `COc1ccc(C2(Cc3ccccc3)CCNC2=O)cc1OC1CCCC1` (stereo unspecified): the IC50 is reported as 1000 nM.
On the same count and under the same terms, the figure for `COc1ccc(C2(Cc3ccncc3)CCN(Cc3cccc4ccccc34)C2=O)cc1OC1CCCC1` (stereo unspecified) is 293 nM; for `CCOC(=O)N1CCC(Cc2ccncc2)(c2ccc(OC)c(OC3CCCC3)c2)C1=O` (stereo unspecified) it is 137 nM.
As to `COc1ccc(C2(Cc3ccncc3)CCN(Cc3ccncc3)C2=O)cc1OC1CCCC1` (stereo unspecified), the IC50 stood at 401 nM.
On the same count and under the same terms, the same measure for `COc1ccc(C2(Cc3ccncc3)CCN(CCC(C)C)C2=O)cc1OC1CCCC1` (stereo unspecified): 81 nM.
Compound `COc1ccc(C2(Cc3cc[n+]([O-])cc3)CCNC2=O)cc1OC1CCCC1` (stereo unspecified) registered an IC50 of 1600 nM.
In the case of `COc1ccc(C2(Cc3ccncc3)CCN(C(=O)OC(C)(C)C)C2)cc1OC1CCCC1` (stereo unspecified), the IC50 was 807 nM.
As to `COc1ccc(C2(Cc3ccncc3)CCN(C(=O)OC(C)(C)C)C2=O)cc1OC1CCCC1` (stereo unspecified), the IC50 was 6.3 nM.
Consider `COc1ccc(C2CCN(C(=O)OC(C)(C)C)C2=O)cc1OC1CCCC1` (stereo unspecified), for which the IC50 is 700 nM. Compared with the last compound, the IC50 is about 110-fold higher.
In turn, `COc1ccc(C2(Cc3ccncc3)CCN(S(=O)(=O)c3ccc(C)cc3)C2=O)cc1OC1CCCC1` (stereo unspecified) came in with an IC50 of 61 nM.
Same read-out and setting: the same measure for `CCCCN1CCC(Cc2ccncc2)(c2ccc(OC)c(OC3CCCC3)c2)C1=O` (stereo unspecified): 123 nM; for `COc1ccc(C2(Cc3ccncc3)CCN(Cc3ccc4ccccc4c3)C2=O)cc1OC1CCCC1` (stereo unspecified): 17 nM; for `COc1ccc(C2(Cc3ccncc3)CCN(Cc3ccccc3)C2=O)cc1OC1CCCC1` (stereo unspecified): 56 nM.
On the same count and under the same terms, the figure for `COc1ccc(C2(Cc3ccncc3)CCN(CC3CCCCC3)C2=O)cc1OC1CCCC1` (stereo unspecified) is 48 nM; for `COc1ccc(C2(Cc3cc[n+]([O-])cc3)CCN(C(=O)OC(C)(C)C)C2=O)cc1OC1CCCC1` (stereo unspecified) it is 59 nM; for `COc1ccc(C2(Cc3ccncc3)CCN(C(=O)N(C)C)C2=O)cc1OC1CCCC1` (stereo unspecified) it is 319 nM.
The same measure, in the same setting: the figure for `COc1ccc(C2CCNC2=O)cc1OC1CCCC1` (stereo unspecified) is 5000 nM.
`COc1ccc(C2(CC#N)CCN(C(=O)OC(C)(C)C)C2=O)cc1OC1CCCC1` (stereo unspecified) came in with an IC50 of 82 nM.
On the same count and under the same terms, the same measure for `COc1ccc(C2(Cc3ccncc3)CCN(C(C)=O)C2=O)cc1OC1CCCC1` (stereo unspecified): 461 nM.
As to `COc1ccc(C2(Cc3ccncc3)CCN(C(=O)OC(C)C)C2=O)cc1OC1CCCC1` (stereo unspecified), the IC50 came to 44 nM.
Still for that read-out and setting: the figure for `COC(=O)N1CCC(Cc2ccncc2)(c2ccc(OC)c(OC3CCCC3)c2)C1=O` (stereo unspecified) is 293 nM.
